In assay [1] the target is recombinant human S1P1 receptor (Homo sapiens, UniProt P21453). Put plainly: GTPγS assay to determine EC50 values. It is filed as biochemical. The note with it: 35S-GTPγS binding, membrane preparations of CHO cells expressing recombinant human S1P1 receptor. The method, then: GTPγS binding assays are performed in 96 well microtiter plates (Nunc, 442587) in a final volume of 200 μl, using membrane preparations of CHO cells expressing recombinant human S1P1 receptor. Assay conditions are 20 mM Hepes (Fluka, 54461), 100 mM NaCl (Fluka, 71378), 5 mM MgCl2 (Fluka, 63064), 0.1% BSA (Calbiochem, 126609), 1 μM GDP (Sigma, G-7127), 2.5% DMSO (Fluka, 41644), 50 pM ^35S-GTPγS (Amersham Biosciences, SJ1320). The pH is 7.4. Test compounds are dissolved and diluted in 100% DMSO and pre-incubated at room temperature for 30 min in 150 μl of the above assay buffer, in the absence of ^35S-GTPγS. After addition of 50 μl of ^35S-GTPγS, the assay is incubated for 1 h at rt. The assay is terminated by transfer of the reaction mixture to a Multiscreen plate (Millipore, MAHFC1H60) using a cell harvester from Packard Biosciences, and the plates are washed with ice-cold 10 mM Na2HPO4/NaH2PO4 (70%/30%), dried, sealed at the bottom and, after addition of 25 μl MicroScint20 (Packard Biosciences, order no. 6013621), sealed on the top. Membrane-bound ^35S-GTPγS is measured with a TopCount from Packard Biosciences.
Sequence of recombinant human S1P1 receptor (P21453 whole entry): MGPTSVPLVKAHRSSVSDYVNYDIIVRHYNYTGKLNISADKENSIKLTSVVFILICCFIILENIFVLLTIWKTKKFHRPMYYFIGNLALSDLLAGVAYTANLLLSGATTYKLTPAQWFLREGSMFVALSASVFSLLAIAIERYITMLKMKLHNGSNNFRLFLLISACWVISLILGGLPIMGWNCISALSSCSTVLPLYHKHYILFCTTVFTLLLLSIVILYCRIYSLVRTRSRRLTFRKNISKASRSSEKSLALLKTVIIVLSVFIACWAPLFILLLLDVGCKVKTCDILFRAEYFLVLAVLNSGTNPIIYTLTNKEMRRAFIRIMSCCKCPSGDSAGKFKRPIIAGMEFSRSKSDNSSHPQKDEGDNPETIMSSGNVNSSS
EC50 is the concentration of agonist inducing 50% of the maximal specific ^35S-GTPγS binding. Specific binding is determined by subtracting non-specific binding from maximal binding. […]
The EC50 value was determined according to the method described above.
Background: GTPγS resists hydrolysis and so accumulates on activated G proteins.

The test system of the next assay is circulating lymphocytes. As to the kind of experiment: Assessment of in vivo efficacy: circulating lymphocytes after oral administration. Details: species or system normotensive male Wistar rats. The conditions noted are these: 6 h after oral administration of 10 mg/kg, male Wistar rats, compared to vehicle group; mean ± SEM. Here is the method:
The efficacy of the compounds of Formula (I) is assessed by measuring the circulating lymphocytes after oral administration of 3 to 30 mg/kg of a compound of Formula (I) to normotensive male Wistar rats. The animals are housed in climate-controlled conditions with a 12 h-light/dark cycle, and have free access to normal rat chow and drinking water. Blood is collected before and 3, 6 and 24 h after drug administration. Full blood is subjected to hematology using Advia Hematology system (Bayer Diagnostics, Zurich, Switzerland).
All data are presented as mean ±SEM. Statistical analyses are performed by analysis of variance (ANOVA) using Statistica (StatSoft) and the Student-Newman-Keuls procedure for multiple comparisons. The null hypothesis is rejected when p<0.05.

A word on the EC50: it is the concentration that produces a half-maximal response.

Regarding `CCc1cc(CCC(=O)c2sc(C(F)(F)F)c3c2CCC(C)(C)C3)cc(C)c1CCC(=O)O` [Example 4, 3-{4-[3-(5,5-Dimethyl-3-trifluoromethyl-4,5,6,7-tetrahydro-benzo[c]thiophen-1-yl)-3-oxo-propyl]-2-ethyl-6-methyl-phenyl}-propionic acid], the EC50 in assay [1] turned out to be 4 nM.

As for `CCc1sc(C(=O)CCc2cc(C)c(CCC(=O)O)c(C)c2)c2c1CC(C)(C)CC2` [Example 1, 3-{4-[3-(3-ethyl-5,5-dimethyl-4,5,6,7-tetrahydro-benzo[c]thiophen-1-yl)-3-oxo-propyl]-2,6-dimethyl-phenyl}-propionic acid], the Lymphocyte counts in the assay on circulating lymphocytes is −61 ± 5%.

The values are drawn from US7981924B2, “Thiophene derivatives” (Actelion Pharmaceuticals Ltd., priority 2005, dated 2011).
